16 molecules from US11371994B2, “Phosphorylated Akt-specific capture agents, compositions, and methods of using and making” (California Institute of Technology, priority 2013, dated 2022) can be followed below.

What all share (type): binding
Assay [1] concerns mouse anti His6 antibody and anti mouse-alkaline phosphatase. Description: Elimination of peptide binders to antibody, on-bead BCIP colour test. Particulars: colour intensity of beads; clear beads are not background binders. The procedure:
Since a preclear screen was not performed against the mouse-Anti His6 antibody and the anti-mouse-alkaline phosphatase antibody, to eliminate peptide binders to the antibodies, all the dark colored peptide hits obtained in the earlier target screen were synthesized on Tentagel-S—NH2 resin. 10 beads of each sequence was taken in spinnex tubes, equilibrated in binding buffer, and then treated with a 1:1000 diluted solution of mouse anti His6 antibody (Abcam) for an hour at 4° C. Following three five minute washes with the binding buffer, a 1:10,000 diluted solution of anti mouse-alkaline phosphatase was added and the shaken for one hour at 4° C. The beads were washed three times for five minutes each with wash buffer 3, followed by three five minute washes with wash buffer 4. The beads were then developed in BCIP solution for thirty minutes and quenched with 0.1 N HCl. The color intensity of the different sequences is recorded in Table 5, along with the probability that the sequence is a binder to the protein and not a background binder (clear beads). The probability arises from the poor resolution of certain amino acid standards in the Edman sequencer during sequencing the hits from the N terminal triligand target screen.

The target in another assay is T1, Akt (Homo sapiens, UniProt P31751).
T1 construct: endogenous in cells; host or cells: OVCAR3
T1 sequence (P31751 whole entry): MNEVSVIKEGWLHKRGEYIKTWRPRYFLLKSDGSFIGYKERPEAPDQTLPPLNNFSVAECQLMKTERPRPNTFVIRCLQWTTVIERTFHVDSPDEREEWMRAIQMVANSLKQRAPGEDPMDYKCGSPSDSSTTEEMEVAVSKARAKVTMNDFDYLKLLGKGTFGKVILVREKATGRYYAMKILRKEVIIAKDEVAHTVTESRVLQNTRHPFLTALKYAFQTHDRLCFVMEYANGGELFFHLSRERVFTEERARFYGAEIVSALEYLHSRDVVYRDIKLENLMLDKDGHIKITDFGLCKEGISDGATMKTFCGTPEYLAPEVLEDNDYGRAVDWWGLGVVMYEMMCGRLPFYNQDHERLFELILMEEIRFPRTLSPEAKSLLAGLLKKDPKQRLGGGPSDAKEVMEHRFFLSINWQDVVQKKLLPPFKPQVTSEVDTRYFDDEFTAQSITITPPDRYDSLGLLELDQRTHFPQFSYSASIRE
Description: OVCAR3 lysate pull-down (immunoprecipitation) assay. Particulars: eluents stained with pan-Akt antibody. The procedure: OVCAR3 cells (ATCC) were grown in RPMI-1640 media containing 20% fetal bovine serum. Passage three cells were grown to ˜80% confluence. Cells were lysed with lysis buffer (10 mM Tris-Cl (pH=7.5), 100 mM NaCl, 1% (v/v) Triton X-100, 0.1% SDS (w/v), 0.5% deoxycholate, 1 mM DTT, 1 mM EDTA, 1× PhosStop phosphatase inhibitors (Roche), 1× Complete protease inhibitors (Roche)) and the amount of protein measured using BCA Protein Assay Kit (Pierce Biotechnologies, Inc). Streptavidin-agarose resin solution (EMD) was swelled in TBST (25 mM tris chloride, pH=7.5, 150 mM NaCl, 0.05% Tween-20). Each of the biotinylated ligands was immobilized on the Streptavidin-agarose resin by adding 7.2 μL of 1 mM ligand stock (DMSO) to 10 μL of the swelled streptavidin-agarose resin. For the blank control, the resin was treated with 7.2 μL of 1 mM biotinylated acyl glycine. […] After shaking overnight at 4° C., 50 μM D-biotin was added to the resin to block any remaining sites. The resin was washed with TBST five times, for fifteen minutes each. The resin was then swelled in binding buffer for two hours. To each of the immobilized ligands, 200 μL OVCAR3 cell lysate (1.9 mg/ml) was added. The tubes were shaken at 4° C. for 18 hours. The beads were extensively washed, three times for fifteen minutes in binding buffer, three times (fifteen minutes) in TBST, and three times (fifteen minutes) in TBS to remove unbound proteins. The resin bound proteins were eluted by adding 40 μL of 2×SDS-PAGE sample loading buffer (BioRad) and heating at 95° C. for five minutes. A 1:10 diluted sample of lysate in sample loading buffer was prepared by mixing 1 μL of the sample with 9 μL sample loading buffer and denaturing the sample by heating at 95° C. for five minutes. 10 μL of each sample was loaded on a 12% SDS-PAGE gels (BioRad) and run for 80 minutes at 110 volts. Three identical gels were loaded and run at the same time. One gel was used for Coomassie staining with Coomassie Fluor Orange Protein Gel Stain (Molecular Probes) following the manufacturer's protocol. The two other gels were transferred to nitrocellulose membranes by the semidry transfer method, blocked for two hours at 4° C. with 5% non-fat milk, and treated overnight at 4° C. with a 1:1000 dilution of pan-Akt rabbit monoclonal antibody (Cell Signaling Technology) and a 1:1000 dilution of pS473 Akt rabbit monoclonal antibody (Cell Signaling Technology), respectively, in 0.5% non-fat milk. The membranes were washed and treated for an hour with a 1:10,000 dilution of monoclonal mouse anti-rabbit-HRP secondary antibody (Cell Signaling Technology) in 0.5% milk. After five washes of five minutes each with TBST and one wash of five minutes with TBS, the blots were developed with West Dura ECL substrate (Thermo Scientific) and imaged on film.

In another assay the target is Akt2 (Homo sapiens, UniProt P31751). Put plainly: Single component ELISA, PCC agent as capture or detection agent (relative affinity). Also noted: purchased Abcam. Particulars: relative affinity; read-out: affinity by single-component immunoassay. An excerpt:
FIG. 23: A. ELISA assays in which the PCC Agents are utilized as either as surface-localized capture agents (for N-tL, C-tL) or as the detection agent (for mono-L, bi-L). Such assays provide relative affinity measurements, which are given as EC50 values in the key. […] C. C-tL distinguishes the full length Akt2 from isoform proteins Akt1 and Akt3. D. The 32 amino acid long C terminal fragment from Akt2, Akt1 and Akt3. The hydrophobic motif is highlighted in blue. pS refers to phospho-serine. […] F. Selectivity assays: Biotinylated ligands or biotinylated pS473 antibody is immobilized on streptavidin-agarose and treated with OVCAR3 cell lysate. The eluents are stained with a pan-Akt antibody or pS473 Akt antibody.
1.25 μM biotinylated ligand was prepared by diluting the 1 mM stock in binding buffer (25 mM tris chloride, pH=7.4, 150 mM NaCl, 0.1% BSA, 0.05% Tween 20). The prepared ligand solution or 0.125% DMSO in buffer (buffer control) was immobilized on a High Capacity Streptavidin 96 well plate (Thermo Scientific). After washing away the excess ligand, the plate was blocked overnight with 1% BSA/25 mM tris chloride, pH=7.4/150 mM NaCl, 0.05% Tween 20. 2.5 μM solutions of the His6 (SEQ ID NO:28) tagged target phosphopeptide epitope Akt2 amino acids 450-481, His6 (SEQ ID NO:28) tagged Akt1 amino acids 449-480, His6 (SEQ ID NO:28) tagged Akt3 amino acids 448-479 were added to each of the wells. Following three washes with the binding buffer, the plate was treated for an hour with a 1:1000 dilution of anti His6 (SEQ ID NO:28) mouse monoclonal antibody. A 1:10,000 dilution of goat anti mouse antibody-Horse Radish Peroxide conjugate in binding buffer was added to the wells. The plates were washed four times, five minutes each, with 0.05% Tween 20/TBS (25 mM tris chloride, pH=7.5, 150 mM NaCl) and once with TBS (25 mM tris chloride, pH=7.5, 150 mM NaCl). Color was developed by adding TMB substrate (KPL) to each well. The reaction was quenched with 0.5 M H2SO4. The A450 measured on a 96-well plate reader. The Net A450 was obtained by subtracting the absorbance value for the blank control (no immobilized ligand) from each of the triplicate values obtained for the ligand-epitope interaction. The selectivity assay with full length His6 (SEQ ID NO:28) tagged Akt1, Akt2 and Akt3 was performed following the same protocol, using 25 nM protein instead of 2.5 μM His6 tagged peptide epitope.
(In general: An ELISA detects its analyte on a solid surface through an enzyme-linked reagent.)

Square brackets hold non-standard residues; d marks the D form. Ends that are not written are not given here. dPra = C#CC[C@@H](N)C(=O)O

Sequence of Akt2 (P31751 whole entry, the tested form may be a part, canonical isoform): as the sequence (P31751 whole entry) above

Take “(D-Pra)-ssGry ([dPra][dS][dS]G[dR][dY]) [SEQ ID NO: 14, on-bead 3° peptide hit of N-tL screen]”: the Color result in assay [1] was “No color”.

As for “SEQ ID NO: 62: on-bead peptide D-Pra-kftfr, hit of N-tL screen ([dPra][dK][dF][dT][dF][dR])”, the Color result in assay [1] is “light”.

For the molecule “Bi5: biligand candidate with hnGii-(D-Pra) as the 2° peptide arm (peptide 1 [dPra][dW][dK][dV][dK][dL]; peptide 2 [dH][dN]G[dI][dI][dPra]; not fully specified (bridges))”, the “immunoprecipitation of Akt from OVCAR3 cell lysate” value (shortened to “immunoprecipitation of Akt”) in the assay with Akt is on record as “did not show any Akt pulldown”.

In the case of “SEQ ID NO: 52: on-bead peptide D-Pra-yvyrf, hit of N-tL screen ([dPra][dY][dV][dY][dR][dF])”, the Color result in assay [1] is reported as “light”.

Take “Bi6: biligand candidate with hnGGd-(D-Pra) as the 2° peptide arm (peptide 1 [dPra][dW][dK][dV][dK][dL]; peptide 2 [dH][dN]GG[dD][dPra]; not fully specified (bridges))”: in the assay with Akt, the “immunoprecipitation of Akt” value is recorded as “did not show any Akt pulldown”. Regarding “SEQ ID NO: 53: on-bead peptide D-Pra-sfrrf, hit of N-tL screen ([dPra][dS][dF][dR][dR][dF])”, the Color result in assay [1] is reported as “light”.

With “SEQ ID NO: 64: on-bead peptide D-Pra-rdrfr, hit of N-tL screen ([dPra][dR][dD][dR][dF][dR])”, the Color entry in assay [1] is “No color”. Still for that read-out and setting: under “SEQ ID NO: 63: on-bead peptide D-Pra-lftfr, hit of N-tL screen ([dPra][dL][dF][dT][dF][dR])” stands “light”; under “SEQ ID NO: 58: on-bead peptide D-Pra-rriyy, hit of N-tL screen ([dPra][dR][dR][dI][dY][dY])”, “dark”. For the molecule “N-tri2: N terminal triligand candidate: (D-Pra)-ssGry clicked to anchor-3N (peptide 1 [dW][dK][dV][dK][dL]; peptide 2 [dH][dN]G[dY][dF]; peptide 3 [dPra][dS][dS]G[dR][dY]; not fully specified (bridges); also: arms clicked by triazole to anchor-3N scaffold (not listed))”, in the assay with Akt, the “immunoprecipitation of Akt” value was “immunoprecipitate Akt2 from OVCAR3 cells”.

Consider “SEQ ID NO: 60: on-bead peptide D-Pra-kfqfr, hit of N-tL screen ([dPra][dK][dF][dQ][dF][dR])”, for which, in assay [1], the Color entry is reported as “light”.

Consider `CC(=O)NC(CCCCn1cc(C[C@@H](NC(C)=O)C(=O)N[C@H](Cc2c[nH]c3ccccc23)C(=O)N[C@H](CCCCN)C(=O)N[C@@H](C(=O)N[C@H](CCCCN)C(=O)N[C@H](CC(C)C)C(N)=O)C(C)C)nn1)C(=O)NCCOCCOCCOCCC(=O)NCCNC(=O)CCCC[C@@H]1SC[C@@H]2NC(=O)N[C@@H]21` (stereo partly shown) [mono-L], for which the EC50 on Akt2 is about 3 µM. In addition, at Akt, the “immunoprecipitation of Akt” value is listed as “sufficient selectivity to immunoprecipitate Akt from OVCAR3 cancer cell lysate”. With “(D-Pra)-yyrfG ([dPra][dY][dY][dR][dF]G) [SEQ ID NO: 13, on-bead 3° peptide hit of N-tL screen]”, the Color result in assay [1] was “No color”.

On to “SEQ ID NO: 61: on-bead peptide D-Pra-lfqfr, hit of N-tL screen ([dPra][dL][dF][dQ][dF][dR])”, for which the Color entry in assay [1] is on record as “light”. As to `CC(=O)NC(CCCCn1cc(C[C@@H](NC(=O)CCCCn2cc(C[C@@H](NC(=O)[C@@H](Cc3ccccc3)NC(=O)[C@@H](Cc3ccc(O)cc3)NC(=O)CNC(=O)[C@@H](CC(N)=O)NC(=O)[C@H](N)Cc3c[nH]cn3)C(=O)O)nn2)C(=O)N[C@H](Cc2c[nH]c3ccccc23)C(=O)N[C@H](CCCCN)C(=O)N[C@@H](C(=O)N[C@H](CCCCN)C(=O)N[C@H](CC(C)C)C(N)=O)C(C)C)nn1)C(=O)NCCOCCOCCOCCC(=O)NCCNC(=O)CCCC[C@@H]1SC[C@@H]2NC(=O)N[C@@H]21` (stereo partly shown) [bi-L], on Akt2, the EC50 is about 1 µM. For the same molecule, the figures for the “immunoprecipitation of Akt” value on Akt (listed as Bi2) and on Akt (listed as biligand) were “best candidate” and “higher selectivity to immunopreciptate Akt from OVCAR3 cell lysate”, respectively. Turning to “SEQ ID NO: 65: on-bead peptide D-Pra-rnrfr, hit of N-tL screen ([dPra][dR][dN][dR][dF][dR])”, the Color entry in assay [1] is “medium”.
